For data set [1] the following is noted: 4b, 50 mg/kg dosed orally, ref (4); cited from earlier work.
The next data set addresses HDAC10 (Homo sapiens (Human), UniProt Q969S8). The note with it: Table 1, literature data; read-out: Inhibitory Potency (IC50) HDAC 10; cited from earlier work.
The target in another data set is HDAC9 (Homo sapiens (Human), UniProt Q9UKV0). Particulars: Table 1, literature data; read-out: Inhibitory Potency (IC50) HDAC 9; cited from earlier work.
In data set [2] the target is T1, HDAC8 (Homo sapiens (Human), UniProt Q9BY41). Particulars: Table 1, literature data; read-out: Inhibitory Potency (IC50) HDAC 8; cited from earlier work.
T1 sequence (Q9BY41 whole entry): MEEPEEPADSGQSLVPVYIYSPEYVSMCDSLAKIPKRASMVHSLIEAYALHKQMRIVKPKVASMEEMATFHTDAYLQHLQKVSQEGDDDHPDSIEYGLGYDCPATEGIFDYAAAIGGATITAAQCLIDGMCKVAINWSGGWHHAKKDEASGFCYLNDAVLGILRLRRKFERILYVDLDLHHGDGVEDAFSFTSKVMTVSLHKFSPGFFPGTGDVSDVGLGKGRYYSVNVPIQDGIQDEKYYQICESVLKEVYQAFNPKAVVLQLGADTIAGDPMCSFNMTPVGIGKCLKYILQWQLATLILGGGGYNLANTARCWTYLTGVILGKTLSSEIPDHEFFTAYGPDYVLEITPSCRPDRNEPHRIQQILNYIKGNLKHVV
A further data set has as its target HDAC4 (Homo sapiens (Human), UniProt P56524). Particulars: Table 1, literature data; read-out: Inhibitory Potency (IC50) HDAC 4; cited from earlier work.
In another data set the target is HDAC7 (Homo sapiens (Human), UniProt Q8WUI4). Particulars: Table 1, literature data; read-out: Inhibitory Potency (IC50) HDAC 7; cited from earlier work.
For the next data set, the target named is HDAC5 (Homo sapiens (Human), UniProt Q9UQL6). The note with it: Table 1, literature data; read-out: Inhibitory Potency (IC50) HDAC 5; cited from earlier work.
The nature of a further data set: in vivo. The note with it: rat.
For data set [3], the system named is HCT116 cells. The experiment in a line: Histone acetylation by Western blotting. Type of data set: cell-based. On the technique in general: A western blot detects proteins with antibodies after separation by electrophoresis.
The conditions of data set [4]: rat, ref (6); cited from earlier work.
Data set [5] deals with HCT116 cells. The experiment in a line: H3K18ac after 6 h pulse treatment and drug washout. The format is cell-based. Particulars: for time at which histone acetylation (H3K18ac) was induced: HCT116, 6 h pulse exposure; for time up to which induced acetylation was maintained: HCT116, 6 h pulse then drug washout, time after drug addition.
The target in data set [6] is T2, HDAC1 (Homo sapiens (Human), UniProt Q13547). The experiment in a line: HDAC1 in vitro inhibition, dose response. Particulars: Table 2; read-out: HDAC 1 IC50. Type of data set: biochemical.
T2 sequence (Q13547 whole entry): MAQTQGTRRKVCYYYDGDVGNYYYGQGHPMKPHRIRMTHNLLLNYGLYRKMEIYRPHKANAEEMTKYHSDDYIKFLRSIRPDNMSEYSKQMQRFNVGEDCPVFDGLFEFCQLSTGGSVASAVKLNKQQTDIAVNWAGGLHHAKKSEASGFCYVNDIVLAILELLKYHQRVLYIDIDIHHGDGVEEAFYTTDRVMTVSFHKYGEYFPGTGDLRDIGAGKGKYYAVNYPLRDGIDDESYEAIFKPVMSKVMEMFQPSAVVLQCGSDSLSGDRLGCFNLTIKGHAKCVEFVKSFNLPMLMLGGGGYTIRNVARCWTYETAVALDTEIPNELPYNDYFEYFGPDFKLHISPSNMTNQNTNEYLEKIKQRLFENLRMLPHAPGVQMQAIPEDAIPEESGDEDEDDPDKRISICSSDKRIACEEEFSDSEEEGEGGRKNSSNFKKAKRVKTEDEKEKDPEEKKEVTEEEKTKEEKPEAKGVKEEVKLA
The target in data set [7] is T3, HDAC3 (Homo sapiens (Human), UniProt O15379). The experiment in a line: HDAC3 in vitro inhibition, dose response. Type of data set: biochemical. The note with it: Table 2; read-out: HDAC 3 IC50.
T3 sequence (O15379 whole entry): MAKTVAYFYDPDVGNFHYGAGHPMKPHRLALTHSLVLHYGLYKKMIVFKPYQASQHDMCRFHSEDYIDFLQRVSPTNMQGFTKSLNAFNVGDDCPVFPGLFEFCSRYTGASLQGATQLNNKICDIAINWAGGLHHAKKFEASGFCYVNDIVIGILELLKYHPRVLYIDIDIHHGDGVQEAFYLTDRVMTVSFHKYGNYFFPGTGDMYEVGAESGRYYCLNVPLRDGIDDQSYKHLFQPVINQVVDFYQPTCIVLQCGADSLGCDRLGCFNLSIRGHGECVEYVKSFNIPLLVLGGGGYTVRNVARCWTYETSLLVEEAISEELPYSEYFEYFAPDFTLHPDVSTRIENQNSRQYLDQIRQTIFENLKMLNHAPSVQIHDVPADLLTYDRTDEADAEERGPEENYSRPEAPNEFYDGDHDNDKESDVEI
T3 sequence (Q9Y618 395-489 partner): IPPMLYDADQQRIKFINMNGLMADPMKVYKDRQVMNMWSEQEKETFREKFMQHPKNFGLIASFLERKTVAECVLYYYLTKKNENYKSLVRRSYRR
Data set [8] deals with HepG2 cells.
Data set [9] concerns the target T4, HDAC2 (Homo sapiens (Human), UniProt Q92769). Briefly: HDAC2 in vitro inhibition, dose response. Type of data set: biochemical. Particulars: Table 2; read-out: HDAC 2 IC50.
The subject of data set [10] is HepG2 cells. Briefly: cells. Particulars: Homo sapiens.
The target of the next data set is HDAC6 (Homo sapiens (Human), UniProt Q9UBN7). The experiment in a line: HDAC6 in vitro inhibition, dose response. Type of data set: biochemical. The note with it: Table 2; read-out: HDAC 6 IC50.
HDAC6, sequence (Q9UBN7 whole entry): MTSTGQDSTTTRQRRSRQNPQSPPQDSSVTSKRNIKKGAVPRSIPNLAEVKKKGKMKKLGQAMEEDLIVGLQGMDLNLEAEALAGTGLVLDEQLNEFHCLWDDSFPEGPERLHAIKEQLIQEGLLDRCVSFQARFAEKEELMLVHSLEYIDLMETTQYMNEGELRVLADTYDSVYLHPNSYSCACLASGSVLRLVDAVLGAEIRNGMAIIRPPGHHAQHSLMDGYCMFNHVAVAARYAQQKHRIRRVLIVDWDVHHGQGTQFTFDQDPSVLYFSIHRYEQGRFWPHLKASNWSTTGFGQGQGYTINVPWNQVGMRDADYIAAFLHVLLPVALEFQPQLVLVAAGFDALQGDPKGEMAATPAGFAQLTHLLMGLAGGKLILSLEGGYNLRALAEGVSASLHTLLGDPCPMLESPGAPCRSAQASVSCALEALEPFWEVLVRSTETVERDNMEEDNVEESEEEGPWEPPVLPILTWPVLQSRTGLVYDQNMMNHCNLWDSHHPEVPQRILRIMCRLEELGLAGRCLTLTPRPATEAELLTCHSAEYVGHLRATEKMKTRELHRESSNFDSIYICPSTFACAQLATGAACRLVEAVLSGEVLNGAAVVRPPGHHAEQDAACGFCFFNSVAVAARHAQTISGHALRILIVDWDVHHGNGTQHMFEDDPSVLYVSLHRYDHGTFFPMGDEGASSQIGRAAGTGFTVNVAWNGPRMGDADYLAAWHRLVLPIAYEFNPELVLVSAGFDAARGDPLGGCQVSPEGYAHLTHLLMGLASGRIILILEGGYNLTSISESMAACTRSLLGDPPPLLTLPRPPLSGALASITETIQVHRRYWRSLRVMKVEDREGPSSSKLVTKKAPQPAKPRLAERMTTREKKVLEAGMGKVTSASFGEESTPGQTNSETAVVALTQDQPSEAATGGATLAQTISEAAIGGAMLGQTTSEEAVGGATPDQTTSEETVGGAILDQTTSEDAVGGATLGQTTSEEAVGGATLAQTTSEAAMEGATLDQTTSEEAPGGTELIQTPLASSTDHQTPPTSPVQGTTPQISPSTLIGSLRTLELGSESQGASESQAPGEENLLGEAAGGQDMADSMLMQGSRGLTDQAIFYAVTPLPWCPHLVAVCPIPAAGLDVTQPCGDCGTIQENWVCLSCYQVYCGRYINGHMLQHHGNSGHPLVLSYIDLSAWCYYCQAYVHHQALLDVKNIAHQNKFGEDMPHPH
Data set [11] addresses T1, HDAC8. Briefly: HDAC8 in vitro inhibition, dose response. Type of data set: biochemical. Particulars: Table 2; read-out: HDAC 8 IC50.
In data set [12] the test system is Ad-MLP-Luc reporter in HCT116 cell line. Briefly: Ad-MLP-Luc luciferase reporter activation. The format is cell-based. Particulars: HCT116, dose-dependent.
In data set [13] the target is T2, HDAC1. Particulars: Table 1, literature data; read-out: Inhibitory Potency (IC50) HDAC 1; cited from earlier work.
Data set [14] has as its target T2, HDAC1. The experiment in a line: In vitro HDAC1 inhibition of HTS hits (HDAC I/II-Glo reagents). The note with it: HTS follow-up. Type of data set: biochemical.
The subject of a further data set is MDA-MB-231 cells. The experiment in a line: Cancer cell viability (CellTiter-Glo). Type of data set: cell-based. The note with it: for IC50: Homo sapiens, MDA-MB-231, read-out: Cancer cell (MDA-MB-231) killing IC50. On the technique in general: Cellular ATP, detected with luciferase, serves as a proxy for viable cell number.
Data set [15] has as its target T4, HDAC2. Briefly: HDAC-2 inhibition potency, luminescence readout. Type of data set: biochemical. The note with it: Table 6, luminescence readout. The source says: (§1) Compounds were examined for their HDAC inhibitory activity and their effect on cancer cell viability (MDA-MB-231 cells).
For data set [16], the target named is T3, HDAC3. The experiment in a line: HDAC-3 inhibition potency, luminescence readout. Type of data set: biochemical. Particulars: Table 6, luminescence readout.
In data set [17] the target is T2, HDAC1. The experiment in a line: HDAC-1 inhibition potency, luminescence readout. Particulars: Table 6, luminescence readout. The format is biochemical.
From the text: as §1

Read-outs that look alike come from different tables or passages of the source.

The values below come from patent US10807944B2, “HDAC inhibitor compounds and methods of treatment” (priority 2014, dated 2020).

For orientation: AUC means concentration integrated over time. The Cmax is the peak of the concentration-time curve. As usually defined, the Tmax is the time from dosing to the highest level. As usually defined, the IC50 is the concentration that gives 50% inhibition.

T4 sequence (Q92769 whole entry): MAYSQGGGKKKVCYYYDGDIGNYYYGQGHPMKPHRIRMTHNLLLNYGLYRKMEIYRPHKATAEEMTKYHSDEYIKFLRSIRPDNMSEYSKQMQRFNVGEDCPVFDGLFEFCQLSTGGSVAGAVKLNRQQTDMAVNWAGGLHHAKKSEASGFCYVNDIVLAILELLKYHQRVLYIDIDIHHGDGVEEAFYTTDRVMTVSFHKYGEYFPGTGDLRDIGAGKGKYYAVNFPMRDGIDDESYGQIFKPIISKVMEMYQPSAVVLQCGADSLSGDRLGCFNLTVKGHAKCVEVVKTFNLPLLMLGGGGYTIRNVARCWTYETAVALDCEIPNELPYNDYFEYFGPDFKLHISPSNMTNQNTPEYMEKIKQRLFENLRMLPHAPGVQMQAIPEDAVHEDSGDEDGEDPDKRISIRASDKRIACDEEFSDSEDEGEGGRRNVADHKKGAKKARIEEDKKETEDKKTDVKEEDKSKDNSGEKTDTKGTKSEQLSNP
HDAC4, sequence (P56524 whole entry): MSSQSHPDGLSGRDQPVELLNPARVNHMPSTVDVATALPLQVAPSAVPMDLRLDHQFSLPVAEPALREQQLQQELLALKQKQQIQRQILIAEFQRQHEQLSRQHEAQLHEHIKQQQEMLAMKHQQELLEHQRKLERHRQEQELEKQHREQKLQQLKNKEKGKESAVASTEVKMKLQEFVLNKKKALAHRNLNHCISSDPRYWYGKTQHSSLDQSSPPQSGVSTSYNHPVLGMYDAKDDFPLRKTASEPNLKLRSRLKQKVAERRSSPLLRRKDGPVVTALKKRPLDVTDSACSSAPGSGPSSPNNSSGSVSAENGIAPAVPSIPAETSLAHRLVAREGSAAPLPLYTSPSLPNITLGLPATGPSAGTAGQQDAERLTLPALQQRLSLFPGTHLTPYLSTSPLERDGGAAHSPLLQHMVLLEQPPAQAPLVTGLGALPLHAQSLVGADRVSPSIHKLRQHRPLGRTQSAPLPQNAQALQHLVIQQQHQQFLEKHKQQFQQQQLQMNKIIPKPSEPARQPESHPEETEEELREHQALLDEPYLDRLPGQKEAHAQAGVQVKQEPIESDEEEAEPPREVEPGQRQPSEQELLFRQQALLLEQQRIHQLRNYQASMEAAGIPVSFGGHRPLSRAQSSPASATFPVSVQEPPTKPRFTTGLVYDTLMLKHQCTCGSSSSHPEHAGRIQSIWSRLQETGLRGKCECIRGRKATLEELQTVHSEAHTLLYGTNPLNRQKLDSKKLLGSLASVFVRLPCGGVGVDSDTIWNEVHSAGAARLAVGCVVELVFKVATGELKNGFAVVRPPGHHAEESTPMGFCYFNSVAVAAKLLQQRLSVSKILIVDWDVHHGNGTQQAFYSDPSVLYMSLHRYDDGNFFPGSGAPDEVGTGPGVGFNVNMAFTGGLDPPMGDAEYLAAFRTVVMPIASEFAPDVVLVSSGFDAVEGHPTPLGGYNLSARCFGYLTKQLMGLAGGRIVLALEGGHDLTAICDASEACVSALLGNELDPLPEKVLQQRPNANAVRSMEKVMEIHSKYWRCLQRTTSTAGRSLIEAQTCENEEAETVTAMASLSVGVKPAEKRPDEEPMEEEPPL
HDAC10, sequence (Q969S8 whole entry): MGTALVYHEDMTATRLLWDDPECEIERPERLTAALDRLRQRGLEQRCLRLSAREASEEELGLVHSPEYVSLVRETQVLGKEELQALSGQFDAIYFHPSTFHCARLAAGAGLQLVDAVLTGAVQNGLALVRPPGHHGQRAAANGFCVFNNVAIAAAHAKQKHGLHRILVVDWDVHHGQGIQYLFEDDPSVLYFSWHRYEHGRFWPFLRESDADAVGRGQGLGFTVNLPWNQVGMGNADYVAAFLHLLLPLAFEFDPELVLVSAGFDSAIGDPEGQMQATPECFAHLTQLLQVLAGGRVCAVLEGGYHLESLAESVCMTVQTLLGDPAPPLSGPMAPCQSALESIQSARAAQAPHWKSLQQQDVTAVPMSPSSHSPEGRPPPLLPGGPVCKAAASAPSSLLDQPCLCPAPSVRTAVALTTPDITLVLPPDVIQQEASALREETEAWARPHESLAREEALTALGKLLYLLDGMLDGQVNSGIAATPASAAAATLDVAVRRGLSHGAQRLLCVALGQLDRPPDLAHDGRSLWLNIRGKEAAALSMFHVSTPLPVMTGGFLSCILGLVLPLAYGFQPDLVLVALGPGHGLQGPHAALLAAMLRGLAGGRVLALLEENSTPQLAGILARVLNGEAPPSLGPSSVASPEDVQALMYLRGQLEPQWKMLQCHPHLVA

On to `Nc1ccccc1NC(=O)CCCCCC(=O)Nc1ccccc1` [Compound 4b], for which, in [1], the AUC is 1.08 µM·h, the Cmax is 1130 nM, the T1/2 was 2.76 h and the time of peak concentration (Tmax) was 0.25 h.

As to `CC(=O)Nc1ccc(C(=O)Nc2cc(-c3cccs3)ccc2N)cc1` [Cpd60], the IC50 on HDAC10 is 3400 nM; at HDAC9 it was above 30000 nM; on HDAC8 [2], above 30000 nM; on HDAC4, above 30000 nM; at HDAC7 it was above 30000 nM; at HDAC5, above 30000 nM.

As to `Nc1ccccc1NC(=O)c1ccc(CNC(=O)OCc2cccnc2)cc1` [MS-275, entinostat], the MTD is around 1.5 mg/kg in “in vivo” and 3.1 mg/kg in [4]. The “accumulation of acetylated histones” value in the data set on HCT116 cells [3] (HCT116, 1 h exposure, TSA 0.2 μM, others 2 μM (FIG. 1A)) was “only slightly induced acetylation at several sites but failed to induce acetylation at most sites”. Also, the “time at which histone acetylation (H3K18ac) was induced” value in the data set with HCT116 cells [5] stood at 18 h. Further, the “time up to which induced acetylation was maintained” value in the data set with HCT116 cells [5] is “at least 48 h”.

Take `CCCCNNC(=O)c1ccccc1` [RLS2-125, N′-butylbenzohydrazide]: the IC50 at HDAC1 [6], at HDAC3 [7] and at HDAC2 [9] was above 50000 nM in each case. In the data set with HepG2 cells [8] (HepG2, 96 h), the “growth inhibition for HepG2” value is reported as “little to no growth inhibition”.

Regarding `CCCCNNC(=O)c1ccc(N(C)C)cc1` [RLS2-131, N′-butyl-4-(dimethylamino)benzohydrazide], the IC50 turned out to be 230 nM on HDAC1 [6]; 1500 nM in the data set on HepG2 cells [10] (HepG2, read-out: IC50 Control); 1800 nM in the data set with HepG2 cells [10] (HepG2, read-out: IC50 HDAC1 shRNA); 2000 nM in the data set on HepG2 cells [10] (HepG2, read-out: IC50 HDAC2 shRNA); 200 nM with HepG2 cells [10] (HepG2, read-out: IC50 HDAC3 shRNA); 120 nM on HDAC3 [7]. Further, the results for the IC50 at HDAC6, at HDAC8 [11] and at HDAC2 [9] were above 50000 nM, 13100 nM and 880 nM, respectively. Further, the “inhibition of cellular HDACs (H4K5ac, H3K18ac)” value in the data set on HCT116 cells [3] (HCT116, 0.5 μM, 24 h (FIG. 1B)) is “potent inhibition of cellular HDACs”. The “potency against HepG2 relative to UF010” value in the data set on HepG2 cells [8] (HepG2) turned out to be 3 fold.

In the case of `C/C=C1\NC(=O)[C@H]2CSSCC/C=C/[C@H](CC(=O)N[C@H](C(C)C)C(=O)N2)OC(=O)[C@H](C(C)C)NC1=O` [Romidepsin, romidepsin], the Ad-MLP-Luc reporter activity entry in data set [12] is recorded as “dramatically increased”. Also, the IC50 at HDAC1 [13] is 2 nM; at HDAC4, 30 nM. In addition, in the data set on HCT116 cells [5], the “time at which histone acetylation (H3K18ac) was induced” value is reported as “quickly induced acetylation”. Further, in the data set with HCT116 cells [5], the “time up to which induced acetylation was maintained” value is listed as “up to 24 h”.

For `O=C(CCCCCCC(=O)Nc1ccccc1)NO` [SAHA, vorinostat, reference compound], the “potency of HDAC1 inhibition in vitro” value at HDAC1 [14] was below 10000 nM.

For the molecule `CCCCNNC(=O)c1ccccc1-c1ccccc1` [SR-3459], the IC50 with MDA-MB-231 cells is above 100000 nM. In the data set on MDA-MB-231 cells (MDA-MB-231), the “effect on cancer cell viability” value was “does not impair cancer cell viability”. In addition, the “HDAC inhibition potency (IC50) HDAC2” value at HDAC2 [15] is on record as “No inhibition”. Moreover, the “HDAC inhibition potency (IC50) HDAC3” value on HDAC3 [16] is “No inhibition”. Moreover, the “HDAC inhibition potency (IC50) HDAC1” value at HDAC1 [17] is reported as “No inhibition”.

Turning to `CCCCNNC(=O)c1ccc(-c2ccccc2)cc1` [SR-3558], the IC50 was determined as 12300 nM with MDA-MB-231 cells, 800 nM on HDAC2 [15] and 90 nM against HDAC1 [17].

On to `CCCCNNC(=O)c1ccc(-c2cccc(F)c2F)cc1` [SR-4370, N′-butyl-2′,3′-difluorobiphenyl-4-carbohydrazide], for which the IC50 at HDAC1 [6] worked out at 130 nM; in the data set with MDA-MB-231 cells, 12600 nM; against HDAC2 [15], 580 nM; against HDAC3 [16], 6 nM; on HDAC3 [7] it was 6 nM; on HDAC1 [17], 130 nM. Besides, the values for the IC50 on HDAC6, at HDAC8 [11] and on HDAC2 [9] were 3700 nM, 2300 nM and 580 nM, respectively.
